In test [1] the test system is gastric secretion (HCl) (rat stomach). Nature of the test: Shay rat: inhibition of gastric secretion (HCl) in the course of 4 h. It is filed as in vivo. Conditions: for ED25 / ED50: Rattus norvegicus, po, perorally, rats; for ED25: dose reducing HCl secretion (4 h) by 25% vs control; for ED50: dose reducing HCl secretion (4 h) by 50% vs control; for Gastric secretion (rats): % inhibition of HCl secretion: after administration of the antiulcerous ED50, perorally, 4 h. On the procedure:
(§1) In these experiments, the compounds according to the invention were compared with prior art compounds (A-D) of European Patent Applications Nos. 0 005 129 and 0 074 341. The compounds investigated are numbered as follows: The influence of the compounds of the prior art and the compounds according to the invention on gastric lesion formation induced by pyloric ligature (4 h; so-called Shay rat) and oral administration of 100 mg/kg of acetylsalicyclic acid, and the gastric secretion (HCl) in the course of 4 h in rats is shown in the following table. | *ED25 and ED50 = dose which reduces the lesion index or the HCL | secretion(4h) in the rat stomach by 25 and, respectively, 50% in the | treated group in comparison with the control group. | **after administration of the antiulcerous ED50. The antiulcerogenic action was tested by the so-called Shay rat method: Ulcers are caused in rats which have been fasted for 24 hours (female, 180-200 g, 4 animals per cage on a high grid) by pyloric ligature (under diethyl ether anesthesia) and oral administration of 100 mg/10 ml/kg of acetylsalicylic acid. The substances to be tested are administered orally (10 ml/kg) one hour before the pyloric ligature. The wound is closed by means of Michel clamps. 4 hours thereafter, the animals are sacrificed under ether anesthesia by Atlas dislocation and resection of the stomach. The stomach is opened longitudinally and attached to a cork plate, after the amount of gastric juice secreted (volume) and later its HCl content (titration with sodium hydroxide solution) have first been determined; the number and size (=diameter) of the ulcers present are determined under a stereomicroscope at 10-fold magnification. The product of the degree of severity (according to the following points scale) and number of ulcers serves as the individual lesion index. The reduction in the average lesion index of each treated group compared with the control group (=100%) serves as a measure of the antiulcerogenic effect.

Test [2] deals with gastric lesion formation (rat stomach). As to the kind of experiment: Shay rat: inhibition of gastric lesion formation induced by pyloric ligature and oral acetylsalicylic acid (protective effect on the stomach). To be noted: perorally, rats, 1 h before pyloric ligature, 4 h, 100 mg/kg acetylsalicylic acid, dose reducing lesion index by 50% vs control. It is filed as in vivo. The protocol:
as §1, with “group.” for “group. | **after administration of the antiulcerous ED50.”

Structures are written as SMILES. A value given as a limit tells only on which side of the number the result lay.

A word on the ED50: it is the dose at which the effect has come halfway, by size or by number of responders. Low values mean greater potency, high ones weaker potency.

As for `COc1ccnc(CSc2nc3cc(OCC(F)(F)F)ccc3[nH]2)c1C` [Serial No. 11, 2-[(4-methoxy-3-methyl-2-pyridyl)methylthio]-5-(2,2,2-trifluoroethoxy)-1H-benzimidazole], in test [1], the ED25 worked out at 0.5 mg/kg, the ED50 is 0.7 mg/kg and the “Gastric secretion (rats): % inhibition of HCl secretion” value (shortened to “Gastric secretion (rats): % inhibition”) is reported as 25%. Further, it took a dose of 0.5 mg/kg to reach the 50% effect level in test [2] (ED50).
Take `COc1ccnc(C[S+]([O-])c2nc3cc(OC(F)F)ccc3[nH]2)c1C` (centres unmarked) [Serial No. 12, 5-difluoromethoxy-2-[(4-methoxy-3-methyl-2-pyridyl)methylsulfinyl]-1H-benzimidazole]: in test [1], the ED25 is around 0.3 mg/kg, the ED50 was around 0.6 mg/kg and the “Gastric secretion (rats): % inhibition” value is on record as ~ 20%. Also, the ED50 in test [2] was around 0.3 mg/kg.
Take `COc1ccnc(C[S+]([O-])c2nc3cc(OC(F)F)c(OC(F)F)cc3[nH]2)c1` (centres unmarked) [Serial No. 13, 5,6-bis(difluoromethoxy)-2-[(4-methoxy-2-pyridyl)methylsulfinyl]-1H-benzimidazole]: in test [1], the ED25 was around 1.1 mg/kg, the ED50 is around 1.7 mg/kg and the “Gastric secretion (rats): % inhibition” value was ~ 30%. The ED50 in test [2] is around 1.2 mg/kg.
For `COc1ccnc(C[S+]([O-])c2nc3cc(OC(F)F)c(OC(F)F)cc3[nH]2)c1C` (centres unmarked) [Serial No. 14, 5,6-bis(difluoromethoxy)-2-[(4-methoxy-3-methyl-2-pyridyl)methylsulfinyl]-1H-benzimidazole] the same measures were around 0.3 mg/kg, 0.6 mg/kg, 20% and 0.2 mg/kg.
As to `COc1ccnc(CSc2nc3cc(OC(F)F)c(OC(F)F)cc3[nH]2)c1C` [Serial No. 15, 5,6-bis(difluoromethoxy)-2-[(4-methoxy-3-methyl-2-pyridyl)methylthio]-1H-benzimidazole], in test [1], the ED25 was 0.5 mg/kg, the ED50 amounted to 1 mg/kg and the “Gastric secretion (rats): % inhibition” value is 30%. Besides, the 50% effect level in test [2] (ED50) was put at a dose of 0.6 mg/kg.
As for `COc1cc2[nH]c([S+]([O-])Cc3nccc(OC)c3C)nc2cc1OC(F)F` (centres unmarked) [Serial No. 16, 5-difluoromethoxy-6-methoxy-2-[(4-methoxy-3-methyl-2-pyridyl)methylsulfinyl]-1H-benzimidazole], the values for the ED50 in test [1] and in test [2] were around 0.8 mg/kg and 0.2 mg/kg, respectively.
`COc1cc2[nH]c(SCc3nccc(OC)c3C)nc2cc1OC(F)F` [Serial No. 17, 5-difluoromethoxy-6-methoxy-2-[(4-methoxy-3-methyl-2-pyridyl)methylthio]-1H-benzimidazole]: in test [1], the ED25 was around 0.3 mg/kg, the ED50 is around 0.8 mg/kg and the “Gastric secretion (rats): % inhibition” value was ~ 25%. The median effective dose (ED50) in test [2] is around 0.3 mg/kg.
For `COc1ccnc(C[S+]([O-])c2nc3cc(OC(F)(F)Cl)ccc3[nH]2)c1` (centres unmarked) [Serial No. 18, 5-chlorodifluoromethoxy-2-[(4-methoxy-2-pyridyl)methylsulfinyl]-1H-benzimidazole], in test [1], the ED25 is below 1 mg/kg, it took a dose of 1.8 mg/kg to reach the 50% effect level (ED50) and the “Gastric secretion (rats): % inhibition” value was 35%. Moreover, the ED50 in test [2] was found to be 1.3 mg/kg.
For `COc1ccc2[nH]c(SCc3ncc(C)c(OC)c3C)nc2c1` [Serial No. A, 5-methoxy-2-[(4-methoxy-3,5-dimethyl-2-pyridylmethyl)thio]-1H--benzimidazole, reference compound], in that order: 12 mg/kg, 25 mg/kg, 20% and 9 mg/kg.
For `COc1ccc2[nH]c([S+]([O-])Cc3ncc(C)c(OC)c3C)nc2c1` (centres unmarked) [Serial No. B, 5-methoxy-2-[(4-methoxy-3,5-dimethyl-2-pyridylmethyl)sulfinyl]-1H--benzimidazole, reference compound] the same measures were 1.9 mg/kg, 4.6 mg/kg, 29% and 2.2 mg/kg.
`COc1ccc2[nH]c(SCc3cc(OC)c(C)cn3)nc2c1` [Serial No. C, 5-methoxy-2-[(4-methoxy-5-methyl-2-pyridylmethyl)thio]-1H--benzimidazole, reference compound] returned an ED25 in test [1] above 60.6 mg/kg. Besides, the ED50 in test [2] was around 30 mg/kg.
For `COc1ccc2[nH]c([S+]([O-])Cc3cc(OC)c(C)cn3)nc2c1` (centres unmarked) [Serial No. D, 5-methoxy-2-[(4-methoxy-5-methyl-2-pyridylmethyl)sulfinyl]-1H--benzimidazole, reference compound], in test [1], the ED25 worked out at 8 mg/kg, the ED50 worked out at 18 mg/kg and the “Gastric secretion (rats): % inhibition” value amounted to 10%. Moreover, in test [2], the median effective dose (ED50) was around 5 mg/kg.

For the origin of these results see patent publication US4555518A, “Fluoroalkoxy substituted benzimidazoles useful as gastric acid secretion inhibitors” (Byk Gulden Lomberg Chemische Fabrik GmbH, priority 1983, dated 1985).
